According to US12686686B2 (priority 2020, dated 2026):
“Also recorded” adds a separate entry of the source. Like-named read-outs stand apart in the source and are kept apart here.

Legend:
RWPE-1 = assay: Cytotoxic activity test (MTT) on normal human prostate cell RWPE-1; format: cell-based
Description: (§1) All prostate cancer cells were cultured with a RPMI-1640 medium containing 10% calf serum, 100 units of penicillin per milliliter and 100 µg/mL of streptomycin in a constant temperature incubator containing 5% carbon dioxide at a saturated humidity of 37° C.
(§2) Cells in the logarithmic phase of growth were taken and cultured in 96-well plates for 24 hours (5×10^3 cells/well), then treated with different concentrations of the compounds to be tested, and incubated by MTT method for 4 hours. The supernatant was removed by centrifugation, the MTT crystals were dissolved by adding DMSO, and the absorbance value was measured by an enzyme-linked immunosorbent assay at a wavelength of 570 nm. The cytotoxic activity of the compounds to be tested on cancer cells was expressed as IC50.

prostate cancer cells = assay: Inhibitory activity on a variety of prostate cancer cells (Table 1); format: cell-based, human; details: structure-activity statements on Table 1
Description: as §1, §2

LNcap = assay: Cytotoxic activity test (MTT) on LNcap prostate cancer cells; format: cell-based, human; details: LNcap cells, MTT, read-out: Prostate cancer cells IC50 LNcap
Description: as §1, §2

Vcap-CRPC = assay: Cytotoxic activity test (MTT) on Vcap-CRPC prostate cancer cells; format: cell-based, human; details: Vcap-CRPC cells, MTT, read-out: Prostate cancer cells IC50 Vcap-CRPC
Description: as §1, §2

22RV1 = assay: Cytotoxic activity test (MTT) on 22RV1 prostate cancer cells; format: cell-based, human; details: 22RV1 cells, MTT, read-out: Prostate cancer cells IC50 22RV1
Description: as §1, §2

C4-2B = assay: Cytotoxic activity test (MTT) on C4-2B prostate cancer cells; format: cell-based, human; details: C4-2B cells
Description: as §1, §2

C4-2B/ENZR = assay: Cytotoxic activity test (MTT) on C4-2B/ENZR prostate cancer cells; format: cell-based, human; details: C4-2B/ENZR cells
Description: as §1, §2

[1] = normal human prostate cell RWPE-1, MTT, read-out: Normal cells RWPE-1 (IC50)
[2] = Homo sapiens, RWPE-1, read-out: Normal cells RWPE-1 (IC50)

SMILES: CCCCCCCCCC12O[C@@H]3[C@@H]4[C@@H]5O[C@]5(CO)[C@@H](O)[C@]5(O)C(=O)C(C)=C[C@H]5[C@@]4(O1)[C@H](C)[C@@H](OC(C)=O)[C@]3(C(C)C)O2 [YH-37]
- IC50 (RWPE-1; [1]): 10.3 µM

SMILES: C=C(C)[C@@]12OC3(c4ccccc4)O[C@@H]1[C@@H]1[C@@H]4O[C@]4(CO)[C@@H](O)[C@]4(O)C(=O)C(C)=C[C@H]4[C@@]1(O3)[C@H](C)[C@H]2OC(=O)c1ccccc1 [YH-11]
- IC50 (RWPE-1; [1]): 13.4 µM
- inhibitory activity on prostate cancer cells (in words) (prostate cancer cells): most prominent

SMILES: C=C(C)[C@@]12OC3(c4ccccc4)O[C@@H]1[C@@H]1[C@@H]4O[C@]4(CO)[C@@H](O)[C@]4(O)C(=O)C(C)=C[C@H]4[C@@]1(O3)[C@H](C)[C@H]2OC(=O)CC [YH-3]
- IC50 (RWPE-1; [1]): 57.2 µM
- IC50 (LNcap): 3.77 nM
- IC50 (Vcap-CRPC): 1.74 nM
- IC50 (22RV1): 434 nM
- IC50 (C4-2B): 8.95 nM

SMILES: C=C(C)[C@@]12OC3(c4ccccc4)O[C@@H]1[C@@H]1[C@@H]4O[C@]4(CO)[C@@H](O)[C@]4(O)C(=O)C(C)=C[C@H]4[C@@]1(O3)[C@H](C)[C@H]2OC(=O)C(C)C [YH-2]
- IC50 (RWPE-1; [1]): 40.3 µM
- IC50 (22RV1): 26.5 nM

SMILES: C=C(C)[C@@]12OC3(c4ccccc4)O[C@@H]1[C@@H]1[C@@H]4O[C@]4(COC(C)=O)[C@@H](OC(C)=O)[C@]4(O)C(=O)C(C)=C[C@H]4[C@@]1(O3)[C@H](C)[C@H]2OC(=O)c1ccccc1 [YH-12]
- IC50 (C4-2B/ENZR; Homo sapiens): 1900 nM
- inhibitory activity on prostate cancer cells (in words) (prostate cancer cells): significant decrease in activity
- IC50 (C4-2B; Homo sapiens): 557 nM

SMILES: C=C(C)[C@@]12OC3(/C=C/C=C/CCCCC)O[C@@H]1[C@@H]1[C@@H]4O[C@]4(COC(=O)c4ccccc4)[C@@H](O)[C@]4(O)C(=O)C(C)=C[C@H]4[C@@]1(O3)[C@H](C)[C@H]2OC(C)=O [YH-25]
- IC50 (C4-2B/ENZR; Homo sapiens): 2300 nM
- inhibitory activity on prostate cancer cells (in words) (prostate cancer cells): significant decrease in activity
- IC50 (C4-2B; Homo sapiens): 593 nM

SMILES: C=C(C)C1(O)C(OC(=O)c2ccccc2)C(C)C2(O)C(C(O)C(O)(CO)C(O)C3(O)C(=O)C(C)=CC32)C1OC(=O)c1ccccc1 (centres unmarked) [YH-56]
- IC50 (RWPE-1; [1]): 35.1 µM
- IC50 (LNcap): 13100 nM
- IC50 (Vcap-CRPC): 15400 nM
- IC50 (C4-2B/ENZR): 2690 nM
- IC50 (22RV1): 47100 nM
- IC50 (C4-2B): 4470 nM

SMILES: C=C(C)[C@@]12OC3(c4ccccc4)O[C@@H]1[C@@H]1[C@@H]4O[C@]4(COC(=O)c4ccccc4)[C@@H](O)[C@]4(O)C(=O)C(C)=C[C@H]4[C@@]1(O3)[C@H](C)[C@H]2OC(C)=O [YH-9]
- IC50 (C4-2B/ENZR; Homo sapiens): 1460 nM
- inhibitory activity on prostate cancer cells (in words) (prostate cancer cells): significant decrease in activity
- IC50 (C4-2B; Homo sapiens): 380 nM

SMILES: C=C(C)[C@@]1(O)[C@H](OC(=O)c2ccccc2)[C@@H]2[C@@H]3O[C@]3(CO)[C@@H](O)[C@]3(O)C(=O)C(C)=CC3[C@@]2(O)[C@H](C)[C@H]1OC(=O)c1ccccc1 (some centres unmarked) [YH-60]
- IC50 (RWPE-1; [1]): 4.81 µM
- IC50 (LNcap; Homo sapiens): 2.85 nM
- IC50 (Vcap-CRPC; Homo sapiens): 911 nM
- IC50 (C4-2B/ENZR; Homo sapiens): 73.9 nM
- IC50 (22RV1; Homo sapiens): 3890 nM
- IC50 (C4-2B; Homo sapiens): 49.4 nM

SMILES: C=C(C)[C@@]12OC3(c4ccccc4)O[C@@H]1[C@@H]1[C@@H]4O[C@]4(CO)[C@@H](O)[C@]4(O)C(=O)C(C)=C[C@H]4[C@@]1(O3)[C@H](C)[C@H]2OC(=O)CCC [YH-1]
- IC50 (RWPE-1; [1]): 43.5 µM
- IC50 (22RV1): 5.74 nM

SMILES: C=C(C)C12OC3(c4ccccc4)OC1C1C4OC4(CO)C(O)C4(O)C(=O)C(C)CC4C1(O3)C(C)C2OC(=O)c1ccccc1 (centres unmarked) [YH-36]
- IC50 (RWPE-1; [1]): 14.6 µM
- IC50 (22RV1): 42.5 nM

SMILES: C=C(C)[C@@]12OC3(c4ccccc4)O[C@@H]1[C@@H]1[C@@H]4O[C@]4(CO)[C@@H](O)[C@]4(O)C(=O)C(C)=C[C@H]4[C@@]1(O3)[C@H](C)[C@H]2OC(C)=O [YH-6]
- IC50 (RWPE-1; [1]): 44.2 µM
- IC50 (LNcap; Homo sapiens): 3.89 nM
- IC50 (Vcap-CRPC; Homo sapiens): 21.2 nM
- IC50 (C4-2B/ENZR; Homo sapiens): 2.34 nM
- IC50 (22RV1; Homo sapiens): 52.5 nM
- IC50 (C4-2B; Homo sapiens): 0.367 nM

SMILES: CC(C)[C@@]12OC3(c4ccccc4)O[C@@H]1[C@@H]1[C@@H]4O[C@]4(CO)[C@@H](O)[C@]4(O)C(=O)[C@@H](C)C[C@H]4[C@@]1(O3)[C@H](C)[C@H]2OC(=O)c1ccccc1 [YH-39]
- IC50 (RWPE-1; [1]): 18.5 µM
- IC50 (22RV1; Homo sapiens): 6.73 nM

SMILES: COc1cccc2c1C(=O)c1c(O)c3c(c(O)c1C2=O)C[C@@](O)(C(=O)CO)C[C@@H]3O[C@H]1C[C@H](N)[C@H](O)[C@H](C)O1 [DOX, doxorubicin, reference compound]
- IC50 (RWPE-1; [1]): 0.0333 µM
- IC50 (Vcap-CRPC; Homo sapiens): 12.4 nM
- IC50 (C4-2B/ENZR; Homo sapiens): 2.87 nM
- IC50 (22RV1; Homo sapiens): 5.99 nM
- IC50 (C4-2B; Homo sapiens): 1.04 nM

SMILES: CC1=C[C@@H]2[C@@](O)(C1=O)[C@H](O)[C@@]1(CO)O[C@H]1[C@H]1[C@H]3OC4(c5ccccc5)O[C@@]3(C(C)C)[C@H](OC(=O)c3ccccc3)[C@@H](C)[C@@]12O4 [YH-40]
- IC50 (RWPE-1; [1]): 20.3 µM

SMILES: C=C(C)[C@@]12OC3(/C=C/C=C/CCCCC)O[C@@H]1[C@@H]1[C@@H]4O[C@]4(COC(C)=O)[C@@H](O)[C@]4(O)C(=O)C(C)=C[C@H]4[C@@]1(O3)[C@H](C)[C@H]2OC(C)=O [YH-24]
- IC50 (RWPE-1; [1]): 21.9 µM
- IC50 (LNcap): 48.2 nM
- IC50 (Vcap-CRPC): 76.2 nM
- IC50 (C4-2B/ENZR): 67.3 nM
- IC50 (22RV1): 45.8 nM

SMILES: C=C(C)[C@@]12OC3(/C=C/C=C/CCCCC)O[C@@H]1[C@@H]1[C@@H]4O[C@]4(COC(C)=O)[C@@H](O)[C@]4(O)C(=O)C(C)=C[C@H]4[C@@]1(O3)[C@H](C)[C@H]2OC(=O)c1ccccc1 [YH-19]
- IC50 (C4-2B/ENZR): 136 nM
- inhibitory activity on prostate cancer cells (in words) (prostate cancer cells): significant decrease in activity
- IC50 (C4-2B): 64.4 nM

SMILES: C=C(C)C1(O)C(O)C(C)C2(O)C(C3OC3(CO)C(O)C3(O)C(=O)C(C)=CC32)C1OC(=O)C=CC=CCCCCC (centres unmarked) [YH-61]
- IC50 (C4-2B/ENZR): 543 nM
- IC50 (C4-2B): 189 nM

SMILES: C=C(C)[C@@]12OC3(C)O[C@@H]1[C@@H]1C=C(CO)C[C@]4(O)C(=O)C(C)=C[C@H]4[C@@]1(O3)[C@H](C)[C@H]2OC(=O)c1ccccc1 [YH-44]
- IC50 (RWPE-1; [1]): 17.4 µM
- IC50 (LNcap): 74.8 nM
- IC50 (Vcap-CRPC): 306 nM
- IC50 (C4-2B/ENZR): 641 nM
- IC50 (22RV1): 4650 nM
- IC50 (C4-2B): 193 nM

SMILES: C=C(C)[C@@]12OC3(/C=C/C=C/CCCCC)O[C@@H]1[C@@H]1[C@@H]4O[C@]4(CO)[C@@H](O)[C@]4(O)C(=O)C(C)=C[C@H]4[C@@]1(O3)[C@H](C)[C@H]2OC(C)=O [YH-22]
- IC50 (RWPE-1; [2]): 5.89 µM
- inhibitory activity on prostate cancer cells (in words) (prostate cancer cells): most prominent; also recorded: more cytotoxic

SMILES: C=C(C)[C@@]12OC3(c4ccccc4)O[C@@H]1[C@@H]1[C@@H]4O[C@]4(COC(C)=O)[C@@H](O)[C@]4(O)C(=O)C(C)=C[C@H]4[C@@]1(O3)[C@H](C)[C@H]2OC(=O)c1ccccc1 [YH-13]
- IC50 (RWPE-1; [1]): 35.7 µM
- IC50 (LNcap; Homo sapiens): 4.53 nM
- IC50 (Vcap-CRPC; Homo sapiens): 67.2 nM
- IC50 (C4-2B/ENZR; Homo sapiens): 6.79 nM
- IC50 (22RV1; Homo sapiens): 83.2 nM

SMILES: CCCCCCCCCC12O[C@@H]3[C@@H]4[C@@H]5O[C@]5(CO)[C@@H](O)[C@]5(O)C(=O)[C@@H](C)C[C@H]5[C@@]4(O1)[C@H](C)[C@@H](OC(C)=O)[C@]3(C(C)C)O2 [YH-38]
- IC50 (RWPE-1; [1]): 20.6 µM
- IC50 (22RV1; Homo sapiens): 5.42 nM

SMILES: C=C(C)C1(O)C(O)C2C3OC3(CO)C(O)C3(O)C(=O)C(C)=CC3C2(O)C(C)C1OC(=O)c1ccccc1 (centres unmarked) [YH-57]
- IC50 (RWPE-1; [1]): 41.1 µM
- IC50 (LNcap): 4820 nM
- IC50 (Vcap-CRPC): 40800 nM
- IC50 (C4-2B/ENZR): 1870 nM
- IC50 (22RV1): 46700 nM
- IC50 (C4-2B): 2320 nM

SMILES: C=C(C)C1(O)C(O)C2C3OC3(CO)C(O)C3(O)C(=O)C(C)=CC3C2(O)C(C)C1OC(C)=O (centres unmarked) [YH-58]
- IC50 (C4-2B/ENZR): 40200 nM
- IC50 (C4-2B): 33600 nM

SMILES: C=C(C)[C@@]12OC3(c4ccccc4)O[C@@H]1[C@@H]1[C@@H](Br)[C@@](O)(CO)[C@@H](O)[C@]4(O)C(=O)C(C)=C[C@H]4[C@@]1(O3)[C@H](C)[C@H]2OC(=O)c1ccccc1 [YH-53]
- IC50 (RWPE-1; [2]): 56.3 µM

SMILES: C=C(C)C12OC3(c4ccccc4)OC1C1C4OC4(CO)C(O)C4(O)C(=O)C(C)CC4C1(O3)C(C)C2OC(C)=O (centres unmarked) [YH-35]
- IC50 (RWPE-1; [1]): 42.9 µM
- IC50 (LNcap): 4.82 nM
- IC50 (Vcap-CRPC): 64.2 nM
- IC50 (C4-2B/ENZR): 1.92 nM
- IC50 (22RV1): 144 nM
- IC50 (C4-2B): 0.426 nM
